Data from patent US20050192264A1, “Slow release steroid composition” (priority 2004, published 2005).
≈ marks a conversion by molar mass, not a printed value. Like-named read-outs stand apart in the source and are kept apart here.

Columns and labels:
[1] = Equilibrium solubility of triamcinolone acetonide in various media (HPLC); format: physicochemical; settings: thermodynamic from solid, read-out: Triamcinolone acetonide conc. (equilibrium solubility)
Description: An HPLC assay method was developed for TA. This was used to determine the equilibrium solubility for TA in various media. It was considered that a solution of acetonitrile may be advantageous for the maintenance of sink conditions, wherein a large surplus of solvent/absorbant/carrier capacity is maintained.

[2] = system: clinically significant macular edema; settings: intravitreal injection of the usual dose (4 mg); cited from earlier work
[3] = Saline saturated with TA (filter validation stock); format: physicochemical
Protocol: Solutions at 1% and 10% of saturation were prepared from a stock of saline saturated with TA (15 μg/mL). The solutions were filtered through a syringe filter and aliquots (200 μL) of the filtrate were collected. […] Consequently, an 800 μL prefiltration volume (see dissolution method above) was assumed sufficient to ensure that the filtrate concentration was representative of the dissolved TA concentration in the dissolution vessel.

[4] = cited from earlier work
[5] = Flow-through dissolution of TA samples in 20% methanol in water; format: physicochemical; settings: solvent solution 20% methanol in water
Protocol: Samples were prepared by dispensing 10 mg of sample into 10 mL of a balanced salt solution comprising 1% Tween 80. The sample in solution was then subjected to vigorous shaking and a number of rapid expulsions through a 22 gauge needle. 2 mL of this suspension was then filtered through a […] Durapore membrane filter which retained essentially all of the particles. The filter is then rinsed with 2 mL water.
This method of sample preparation avoids the problem of particles formed of large agglomerations of crystals which appear to dissolve as large crystals and therefore bias results.
Dissolution was performed using a flow through system that pumps a degassed solvent solution of 20% methanol in water through the dissolution chamber at around 11 mL per minute. […] The combination of flow rate and solvent solution dissolves the TA crystals at a rate that enables a flow-through cell to record absorbance values in the acceptable range for virtually all of the 30 minute run time and for the experiment to be completed in a reasonable period. […]
Approximately 2 mg of sample was prepared on a filter as outlined above. […] The absorbance was recorded on a chart recorder with 2 absorbance units causing 100% pen deflection.
Dissolution studies were carried out for a period of 30 minutes with a flow rate of 11 mL per minute. Average absorbance values over 2 minute periods were calculated. […]

**Q.** For `CC1(C)O[C@@H]2CC3C4CCC5=CC(=O)C=CC5(C)[C@@]4(F)C(O)CC3(C)C2(C(=O)CO)O1` (stereo partly shown) [triamcinolone acetonide, 9-fluoro-11,21-dihydroxy-16,17-[1-methylethylidinebis(oxy)]pregna-1,4-diene-3,20-dione], which solubility thermodynamic ([1]; 5% Acetonide, aqueous with cosolvent or surfactant or cyclodextrin) is on record?
**A.** 5.2 µg/mL (≈ 12 µM)

**Q.** What about the solubility thermodynamic ([1]; 10% Acetonide, aqueous with cosolvent or surfactant or cyclodextrin) of the same compound?
**A.** 9.1 µg/mL (≈ 20.9 µM)

**Q.** And the solubility thermodynamic ([1]; 30% Acetonide, aqueous with cosolvent or surfactant or cyclodextrin)?
**A.** 128 µg/mL (≈ 295 µM)

**Q.** And the solubility thermodynamic ([1]; distilled water, water)?
**A.** 8.8 µg/mL (≈ 20.3 µM)

**Q.** And the solubility thermodynamic ([1]; normal saline, saline or isotonic)?
**A.** 8.2 µg/mL (≈ 18.9 µM)

**Q.** What about the “time after which beneficial effects are diminished” value [2] of the same compound?
**A.** approximately three

**Q.** What about the “concentration of saline saturated with TA” value [3] of the same compound?
**A.** 15000 ng/mL

**Q.** What about the “persistence at measurable concentrations in the vitreous humour” value ([4]; patients who have not undergone vitrectomy, assuming five half-lives) of the same compound?
**A.** 93 ± 28 days

**Q.** What about the mean elimination half-life ([4]; single intravitreal injection, nonvitrectomized patients) of the same compound?
**A.** 18.6 days

**Q.** What about the “solubility of TA in the solvent solution relative to TA in water alone” value [5] of the same compound?
**A.** 2-3 times
